# Measurements reported in patent US20230398130A1, “METHODS AND COMPOSITIONS FOR DIFFERENTIATING STEM CELLS” (Massachusetts Institute of Technology, priority 2020, published 2023).
# Tests used:
# ISC-enriched organoids [1] = test: Primary screen, 384-well 2.5-D organoid differentiation (ENR+CD, 6 days): basal lysozyme secretion (LYZ.NS); format: cell-based, murine; conditions: for Dose.FC.LYZ.NS (log 2 fold change, basal lysozyme secretion) / Dose.FC.LYZ.NS (log 2 fold change): vs plate median; for Dose.FC.LYZ.NS: FC vs plate median; for Z.LYZ.NS: standard z score of FC; for SSMD.LYZ.NS: strictly standardized mean difference
# Description: (§1) High-throughput screening.
# ISC-enriched organoids [2] = test: Primary screen, 384-well 2.5-D organoid differentiation (ENR+CD, 6 days): carbachol-induced lysozyme secretion (LYZ.S); format: cell-based, murine; conditions: for Dose.FC.LYZ.S (log 2 fold change, carbachol-induced lysozyme secretion) / Dose.FC.LYZ.S (log 2 fold change): vs plate median; for Dose.FC.LYZ.S: FC vs plate median; for Z.LYZ.S: standard z score; for SSMD.LYZ.S: strictly standardized mean difference
# Description: as §1
# ISC-enriched organoids [3] = test: Primary screen, 384-well 2.5-D organoid differentiation (ENR+CD, 6 days, Target Selective Inhibitor Library, vs whole-plate median): ATP (CellTiter-Glo 3D, CTG); conditions: for Dose.FC.CTG (log 2 fold change, ATP) / Dose.FC.CTG (log 2 fold change): vs plate median; for Dose.FC.CTG: FC vs plate median; for SSMD.CTG: strictly standardized mean difference
# [4] = dose 0.08 uM (1st of 4 lines per treatment; dose not printed in this part)
# [5] = dose 0.40 uM (2nd of 4 lines per treatment; dose not printed in this part)
# [6] = primary screen, dose 0.08 uM, ENR+CD 6 days
# [7] = primary screen, dose 0.40 uM, ENR+CD 6 days
# [8] = primary screen, dose 2.00 uM, ENR+CD 6 days
# [9] = primary screen, dose 10.00 uM, ENR+CD 6 days
# [10] = primary screen, 1st of the 4 dose lines of the treatment (dose not given)
# [11] = primary screen, 2nd of the 4 dose lines of the treatment (dose not given)
# [12] = primary screen, 3rd of the 4 dose lines of the treatment (dose not given)
# [13] = primary screen, 4th of the 4 dose lines of the treatment (dose not given)
smiles,measurement,setting,value
Cl.Cl.Cl.O[C@@H](COc1cccc2ncccc12)CN1CCN([C@@H]2c3ccccc3[C@@H]3[C@H](c4ccccc42)C3(F)F)CC1 [Zosuquidar (LY335979) 3HCl],Z.LYZ.NS (standard z score),ISC-enriched organoids [1]; dose 0.08 uM,0.839
same,"Dose.FC.LYZ.NS (log 2 fold change, basal lysozyme secretion)",ISC-enriched organoids [1]; dose 0.08 uM,0.096
same,Z.LYZ.NS (standard z score),ISC-enriched organoids [1]; dose 0.40 uM,0.696
same,"Dose.FC.LYZ.NS (log 2 fold change, basal lysozyme secretion)",ISC-enriched organoids [1]; dose 0.40 uM,0.080
same,Z.LYZ.NS (standard z score),ISC-enriched organoids [1]; dose 2.00 uM,1.802
same,"Dose.FC.LYZ.NS (log 2 fold change, basal lysozyme secretion)",ISC-enriched organoids [1]; dose 2.00 uM,0.207
same,Z.LYZ.NS (standard z score),ISC-enriched organoids [1]; dose 10.00 uM,−1.821
same,"Dose.FC.LYZ.NS (log 2 fold change, basal lysozyme secretion)",ISC-enriched organoids [1]; dose 10.00 uM,−0.209
same,"Dose.FC.LYZ.S (log 2 fold change, carbachol-induced lysozyme secretion)",ISC-enriched organoids [2]; dose 0.08 uM,0.124
same,"Dose.FC.LYZ.S (log 2 fold change, carbachol-induced lysozyme secretion)",ISC-enriched organoids [2]; dose 0.40 uM,0.127
same,"Dose.FC.LYZ.S (log 2 fold change, carbachol-induced lysozyme secretion)",ISC-enriched organoids [2]; dose 2.00 uM,0.129
same,"Dose.FC.LYZ.S (log 2 fold change, carbachol-induced lysozyme secretion)",ISC-enriched organoids [2]; dose 10.00 uM,−0.200
same,Z.CTG (standard z score),ISC-enriched organoids [3]; dose 0.08 uM,0.041
same,"Dose.FC.CTG (log 2 fold change, ATP)",ISC-enriched organoids [3]; dose 0.08 uM,0.017
same,Z.CTG (standard z score),ISC-enriched organoids [3]; dose 0.40 uM,0.470
same,"Dose.FC.CTG (log 2 fold change, ATP)",ISC-enriched organoids [3]; dose 0.40 uM,0.197
same,Z.CTG (standard z score),ISC-enriched organoids [3]; dose 2.00 uM,0.659
same,"Dose.FC.CTG (log 2 fold change, ATP)",ISC-enriched organoids [3]; dose 2.00 uM,0.276
same,Z.CTG (standard z score),ISC-enriched organoids [3]; dose 10.00 uM,−0.461
same,"Dose.FC.CTG (log 2 fold change, ATP)",ISC-enriched organoids [3]; dose 10.00 uM,−0.193
CC1(C)CCC(c2ccc(Cl)cc2)=C(CN2CCN(c3ccc(C(=O)NS(=O)(=O)c4ccc(N[C@H](CCN5CCOCC5)CSc5ccccc5)c(S(=O)(=O)C(F)(F)F)c4)cc3)CC2)C1 [ABT-263 (Navitoclax)],SSMD.LYZ.NS_Rep (strictly standardized mean difference),ISC-enriched organoids [1]; [4],0.062
same,SSMD.LYZ.NS_Rep (strictly standardized mean difference),ISC-enriched organoids [1]; [5],0.062
same,Dose.FC.LYZ.NS,ISC-enriched organoids [1]; [6],0.012 log 2 fold change
same,Z.LYZ.NS,"ISC-enriched organoids [1]; primary screen, dose 0.08 uM",0.104
same,Dose.FC.LYZ.NS,ISC-enriched organoids [1]; [7],0.007 log 2 fold change
same,Z.LYZ.NS,"ISC-enriched organoids [1]; primary screen, dose 0.40 uM",0.062
same,Dose.FC.LYZ.NS,ISC-enriched organoids [1]; [8],−0.143 log 2 fold change
same,Z.LYZ.NS,"ISC-enriched organoids [1]; primary screen, dose 2.00 uM",−1.248
same,Dose.FC.LYZ.NS,ISC-enriched organoids [1]; [9],−0.259 log 2 fold change
same,Z.LYZ.NS,"ISC-enriched organoids [1]; primary screen, dose 10.00 uM",−2.259
same,SSMD.LYZ.S_Rep (strictly standardized mean difference),ISC-enriched organoids [2]; [4],−0.041
same,Z.LYZ.S (standard z score),ISC-enriched organoids [2]; [4],−0.064
same,SSMD.LYZ.S_Rep (strictly standardized mean difference),ISC-enriched organoids [2]; [5],−0.134
same,Z.LYZ.S (standard z score),ISC-enriched organoids [2]; [5],−0.129
same,Dose.FC.LYZ.S,ISC-enriched organoids [2]; [6],−0.010 log 2 fold change
same,Dose.FC.LYZ.S,ISC-enriched organoids [2]; [7],−0.020 log 2 fold change
same,Dose.FC.LYZ.S,ISC-enriched organoids [2]; [8],−0.205 log 2 fold change
same,Dose.FC.LYZ.S,ISC-enriched organoids [2]; [9],−0.400 log 2 fold change
same,SSMD.CTG_Rep (strictly standardized mean difference),ISC-enriched organoids [3]; [4],−0.462
same,SSMD.CTG_Rep (strictly standardized mean difference),ISC-enriched organoids [3]; [5],−0.777
same,Dose.FC.CTG,ISC-enriched organoids [3]; [6],−0.212 log 2 fold change
same,Z.CTG,"ISC-enriched organoids [3]; primary screen, dose 0.08 uM, standard z score of FC",−0.507
same,Dose.FC.CTG,ISC-enriched organoids [3]; [7],−0.264 log 2 fold change
same,Z.CTG,"ISC-enriched organoids [3]; primary screen, dose 0.40 uM, standard z score of FC",−0.631
same,Dose.FC.CTG,ISC-enriched organoids [3]; [8],−0.368 log 2 fold change
same,Z.CTG,"ISC-enriched organoids [3]; primary screen, dose 2.00 uM, standard z score of FC",−0.878
same,Dose.FC.CTG,ISC-enriched organoids [3]; [9],−0.962 log 2 fold change
same,Z.CTG,"ISC-enriched organoids [3]; primary screen, dose 10.00 uM, standard z score of FC",−2.298
CCN1CCC[C@H]1CNC(=O)c1cc(S(N)(=O)=O)ccc1OC [Levosulpiride],SSMD.LYZ.NS,ISC-enriched organoids [1]; [10],0.092
same,SSMD.LYZ.NS,ISC-enriched organoids [1]; [11],0.226
same,SSMD.LYZ.NS,ISC-enriched organoids [1]; [12],0.501
same,SSMD.LYZ.NS,ISC-enriched organoids [1]; [13],−0.195
same,Z.LYZ.S,ISC-enriched organoids [2]; [10],−0.108
same,Z.LYZ.S,ISC-enriched organoids [2]; [11],0.830
same,Z.LYZ.S,ISC-enriched organoids [2]; [12],0.800
same,Z.LYZ.S,ISC-enriched organoids [2]; [13],−0.168
same,SSMD.LYZ.S,ISC-enriched organoids [2]; [10],−0.076
same,SSMD.LYZ.S,ISC-enriched organoids [2]; [11],0.774
same,SSMD.LYZ.S,ISC-enriched organoids [2]; [12],0.531
same,SSMD.LYZ.S,ISC-enriched organoids [2]; [13],−0.154
same,Z.CTG,"ISC-enriched organoids [3]; Dose 0.08 uM, primary screen, standard z score",−0.102
same,Z.CTG,"ISC-enriched organoids [3]; Dose 0.40 uM, primary screen, standard z score",−0.015
same,Z.CTG,"ISC-enriched organoids [3]; Dose 2.00 uM, primary screen, standard z score",0.074
same,Z.CTG,"ISC-enriched organoids [3]; Dose 10.00 uM, primary screen, standard z score",0.215
same,SSMD.CTG,ISC-enriched organoids [3]; [10],−0.129
same,SSMD.CTG,ISC-enriched organoids [3]; [11],−0.019
same,SSMD.CTG,ISC-enriched organoids [3]; [12],0.087
same,SSMD.CTG,ISC-enriched organoids [3]; [13],0.297
CCOC(=O)c1ccc(NC2CCCCC2)c(N)c1 [Ferrostatin-1 (Fer-1)],Dose.FC.LYZ.NS,"ISC-enriched organoids [1]; Dose 0.08 uM, ENR+CD, 6 days",0.108 log 2 fold change
same,Z.LYZ.NS,ISC-enriched organoids [1]; Dose 0.08 uM,0.944
same,Dose.FC.LYZ.NS,"ISC-enriched organoids [1]; Dose 0.40 uM, ENR+CD, 6 days",0.116 log 2 fold change
same,Z.LYZ.NS,ISC-enriched organoids [1]; Dose 0.40 uM,1.012
same,Dose.FC.LYZ.NS,"ISC-enriched organoids [1]; Dose 2.00 uM, ENR+CD, 6 days",0.070 log 2 fold change
same,Z.LYZ.NS,ISC-enriched organoids [1]; Dose 2.00 uM,0.610
same,Dose.FC.LYZ.NS,"ISC-enriched organoids [1]; Dose 10.00 uM, ENR+CD, 6 days",0.013 log 2 fold change
same,Z.LYZ.NS,ISC-enriched organoids [1]; Dose 10.00 uM,0.116
same,Dose.FC.LYZ.S,"ISC-enriched organoids [2]; Dose 0.08 uM, ENR+CD, 6 days",0.120 log 2 fold change
same,Dose.FC.LYZ.S,"ISC-enriched organoids [2]; Dose 0.40 uM, ENR+CD, 6 days",0.207 log 2 fold change
same,Dose.FC.LYZ.S,"ISC-enriched organoids [2]; Dose 2.00 uM, ENR+CD, 6 days",0.092 log 2 fold change
same,Dose.FC.LYZ.S,"ISC-enriched organoids [2]; Dose 10.00 uM, ENR+CD, 6 days",−0.018 log 2 fold change
same,Dose.FC.CTG,"ISC-enriched organoids [3]; Dose 0.08 uM, ENR+CD, 6 days",0.312 log 2 fold change
same,Z.CTG,"ISC-enriched organoids [3]; Dose 0.08 uM, standard z score of FC",0.745
same,Dose.FC.CTG,"ISC-enriched organoids [3]; Dose 0.40 uM, ENR+CD, 6 days",0.453 log 2 fold change
same,Z.CTG,"ISC-enriched organoids [3]; Dose 0.40 uM, standard z score of FC",1.082
same,Dose.FC.CTG,"ISC-enriched organoids [3]; Dose 2.00 uM, ENR+CD, 6 days",0.215 log 2 fold change
same,Z.CTG,"ISC-enriched organoids [3]; Dose 2.00 uM, standard z score of FC",0.514
same,Dose.FC.CTG,"ISC-enriched organoids [3]; Dose 10.00 uM, ENR+CD, 6 days",−0.046 log 2 fold change
same,Z.CTG,"ISC-enriched organoids [3]; Dose 10.00 uM, standard z score of FC",−0.109
O=C(Nc1cc(C(F)(F)F)ccc1N1CCCCC1)c1ccncc1 [SRPIN340],Z.LYZ.NS (standard z score),"ISC-enriched organoids [1]; Dose 0.08 uM, primary screen",1.004
same,Dose.FC.LYZ.NS (log 2 fold change),"ISC-enriched organoids [1]; Dose 0.08 uM, primary screen",0.115
same,Z.LYZ.NS (standard z score),"ISC-enriched organoids [1]; Dose 0.40 uM, primary screen",0.348
same,Dose.FC.LYZ.NS (log 2 fold change),"ISC-enriched organoids [1]; Dose 0.40 uM, primary screen",0.040
same,Z.LYZ.NS (standard z score),"ISC-enriched organoids [1]; Dose 2.00 uM, primary screen",0.846
same,Dose.FC.LYZ.NS (log 2 fold change),"ISC-enriched organoids [1]; Dose 2.00 uM, primary screen",0.097
same,Z.LYZ.NS (standard z score),"ISC-enriched organoids [1]; Dose 10.00 uM, primary screen",0.192
same,Dose.FC.LYZ.NS (log 2 fold change),"ISC-enriched organoids [1]; Dose 10.00 uM, primary screen",0.022
same,Dose.FC.LYZ.S (log 2 fold change),"ISC-enriched organoids [2]; Dose 0.08 uM, primary screen",0.112
same,Dose.FC.LYZ.S (log 2 fold change),"ISC-enriched organoids [2]; Dose 0.40 uM, primary screen",0.098
same,Dose.FC.LYZ.S (log 2 fold change),"ISC-enriched organoids [2]; Dose 2.00 uM, primary screen",0.100
same,Dose.FC.LYZ.S (log 2 fold change),"ISC-enriched organoids [2]; Dose 10.00 uM, primary screen",0.078
same,Z.CTG (standard z score),"ISC-enriched organoids [3]; Dose 0.08 uM, primary screen",1.005
same,Dose.FC.CTG (log 2 fold change),"ISC-enriched organoids [3]; Dose 0.08 uM, primary screen",0.421
same,Z.CTG (standard z score),"ISC-enriched organoids [3]; Dose 0.40 uM, primary screen",1.063
same,Dose.FC.CTG (log 2 fold change),"ISC-enriched organoids [3]; Dose 0.40 uM, primary screen",0.445
same,Z.CTG (standard z score),"ISC-enriched organoids [3]; Dose 2.00 uM, primary screen",1.083
same,Dose.FC.CTG (log 2 fold change),"ISC-enriched organoids [3]; Dose 2.00 uM, primary screen",0.453
same,Z.CTG (standard z score),"ISC-enriched organoids [3]; Dose 10.00 uM, primary screen",1.115
same,Dose.FC.CTG (log 2 fold change),"ISC-enriched organoids [3]; Dose 10.00 uM, primary screen",0.467
